Patent US10894412B2, “Ink jet recording apparatus” (Seiko Epson Corporation, priority 2018, dated 2021)

What was measured:
[1] = Octanol/water distribution coefficient (log P value, OECD Test Guideline 107); type: physicochemical
From the text: The octanol/water distribution coefficient is a value referred to as a log P value and refers to a value defined in OECD Test Guideline 107. As the log P value is larger, the hydrophobicity is higher. As the log P value is smaller, the hydrophilicity is higher.

[2] = Solubility of organic compound in the ink; type: physicochemical; conditions: in the ink of Comparative Example 4
From the text: Incidentally, values in the table are in mass percent. Pigment, dye, and dispersion resin in the table each show the amount of solid matter.

octanol/water distribution coefficient [1]: 2.25
solubility [2]: poor
SMILES: COC(=O)c1ccc(C(=O)OC)cc1 [dimethyl terephthalate]
